Source: PMC11243672, “New 3-(Dibenzyloxyphosphoryl)isoxazolidine Conjugates of N1-Benzylated Quinazoline-2,4-diones as Potential Cytotoxic Agents against Cancer Cell Lines” (Molecules, 2024)
Values after ≈ are worked out from the molar mass of the structure shown. “Also recorded” adds a separate entry of the source.

What was measured:
PC-3 cell line = experiment: IncuCyte caspase-3/7 apoptosis induction assay; assay type: cell-based, human; settings: PC-3 cells, tested at 1 µM and 10 µM, monitored for 28 h; staurosporine 1 µM positive control
Description: Apoptosis induction tests were conducted using the IncuCyte system to test cells (PC-3) in an in vitro culture. […] The compounds were tested at 1 µM and 10 µM concentrations, and apoptosis was monitored for 28 h (Figure 6). The incubation time was selected based on the induction of apoptosis in the control cells. Staurosporine (STA) at a concentration of 1 µM was used as the positive control, while the negative control cells were treated with 0.1% DMSO (vehicle control). […].
Apoptosis was monitored in real time using the Incucyte® Caspase-3/7 for […] Dyes (Cat. No. 4776, Sartorius, Ann Arbor, MI, USA). The principle of this test is based on binding a DNA intercalating dye with the activation motif (DEVD) of caspase-3/7, allowing a quantitative analysis of cells to undergo caspase-3/7-mediated apoptosis in real time. For the experiment, PC3 cells were seeded in a black 96-well plate with transparent bottom (cat. no. 165305, ThermoScientific, Waltham, MA, USA) at 10,000 cells/well density and cultured overnight. The next day, the medium was removed, and the cells were treated with the tested compound. […] The IncuCyte S3 imaging system recorded kinetic measures of the number of caspase-3/7 positive cells. Repeat scanning to record phase and fluorescence images were every 2 h, for up to 28 h. […]

[1] = system: human skin fibroblast (HSF); experiment: Safety study in vitro (MTS viability), HSF; assay type: cell-based; settings: 0.205–50 μM, 72 h
Description: (§1) In drug development, particular attention should be paid to studying the safety profile of compounds. Promising drug candidates should not cause adverse effects on essential organ systems like the liver, kidney, or healthy cells in general. Systemic toxicity of the compound is the main factor limiting its therapeutic application and efficiency. In our study, a preliminary study on nephrotoxicity and hepatotoxicity was evaluated in human embryonic kidney cells (HEK293, ATCC® CRL1573™) and human hepatoma cells (HepG2, ATCC® HB8065™), respectively. HEK293 is commonly used to evaluate the cytotoxicity of nephrotoxic compounds [42]. HepG2 is a well-established in vitro human cell system to study liver toxicity. We also used healthy human skin fibroblast (HSF) to extend the cytotoxicity profile. All three cell lines were cultured in DMEM (Gibco no. 61965-026, UK) supplemented with 10% FBS (Gibco no. 10500-064, UK). For the experiment, cells were seeded (8 × 10^3 cells/100μL/well) in transparent 96-well plates (FALCON no. 353072, Corning, Durham, […], USA) and cultured overnight. […] DOX was a reference compound that adversely affected the liver, kidney, and healthy cells. Treatment with compounds was carried out for 72 h. Cell viability was examined using an MTS-based CellTiter96® AQueous One Solution Cell Proliferation Assay (Promega, Madison, WI, USA) following the manufacturer’s protocol.

[2] = system: prostate cancer cells (PC-3); experiment: MTS-based cytotoxicity assay, PC-3; assay type: cell-based, human; settings: Homo sapiens, 72 h, 72 h treatment, 0.205–50 μM, mean ± SEM
Description: (§2) In this study, we applied the most extensively used MTS-based assay, which provides a valuable tool for determining cell viability by evaluating metabolic activity. The cytostatic activity of the tested compounds was defined as the half-maximal inhibitory concentration (IC50) causing a 50% decrease in the metabolic activity of the cells. It was determined against breast cancer (MCF-7), fibrosarcoma (HT-1080), and prostate cancer (PC-3) cells.
(§3) The tested compounds were tested against three different human cancer cell lines (breast adenocarcinoma MCF-7 ATCC® HTB-22^TM, fibrosarcoma HT-1080 ATCC® CCL121^TM, and prostate adenocarcinoma PC-3 ATCC® CRL-1435^TM). For the cell viability experiment, cells were seeded in transparent 96-well plates (FALCON no. 353072, Corning, Durham, NC, USA) in MEM (Gibco no. 31095-029, UK) supplemented with 10% heat-inactivated FBS (Gibco no. 10500-064, UK). The cell seeding density was as follows: MCF-7 12,000 cells/well, HT-1080 7000 cells/well, PC-3 10,000 cells/well. Cells were seeded one day before treatment with the tested compounds and cultured overnight. The confluence on the treatment day was around 30%. The tested compounds were dissolved in DMSO as 10 mM stock solutions and kept under −4 °C. On the day of experimentation, the medium was removed and replaced with a fresh one that contained the following: (1) dimethylsulfoxide (DMSO < 0.1%, vehicle control (Veh)); (2) increasing the concentration of compounds (0.205–50 μM, performed as a 2.5-fold serial dilution for dose–response analysis). Treatment with compounds was carried out for 72 h. Each treatment was replicated three times in a single experiment, with three separate experiments conducted. (n = 9). When significant variability in the results occurred, an additional test was performed on certain compounds. During the incubation, the cells were examined under an inverted microscope to check if the compounds had not precipitated in the culture medium. The inhibitory effect of compounds on the cell was examined using an MTS-based assay (Promega, Madison, WI, USA) following the manufacturer’s protocol. The absorbance was measured at 490 nm using Tecan Spark’s multimode plate reader (Tecan, Männedorf, Switzerland). A reference wavelength of 630 nm was used to subtract the background. IC50 values were calculated by fitting a non-linear regression to a sigmoidal dose–response curve in GraphPad Prism version 8.0.1.

[3] = system: breast cancer cells (MCF-7); experiment: MTS-based cytotoxicity assay, MCF-7; assay type: cell-based, human; settings: Homo sapiens, MCF7, 72 h, 72 h treatment, 0.205–50 μM, mean ± SEM
Description: as §2, §3

[4] = system: human hepatoma cells (HepG2); experiment: Safety study in vitro (MTS viability), HepG2; assay type: cell-based; settings: 0.205–50 μM, 72 h
Description: as §1

[5] = system: human embryonic kidney cells (HEK293); experiment: Safety study in vitro (MTS viability), HEK293; assay type: cell-based; settings: 0.205–50 μM, 72 h
Description: as §1

[6] = system: fibrosarcoma cells (HT-1080); experiment: MTS-based cytotoxicity assay, HT-1080; assay type: cell-based, human; settings: Homo sapiens, HT-1080, 72 h, 72 h treatment, 0.205–50 μM, mean ± SEM
Description: as §2, §3

[7] = system: epidermoid carcinoma cell line (KB); settings: cytotoxicity; cited from earlier work
[8] = system: murine leukemia cell line (L1210); settings: cytotoxicity; cited from earlier work
HCT-116 [9] = system: HCT-116; parameters: method as in PMID 32510731; settings: antiproliferative activity; cited from earlier work
HepG2 = system: HepG2; parameters: method as in PMID 32510731; settings: antiproliferative activity; cited from earlier work
MCF-7 = system: MCF-7; parameters: method as in PMID 32510731; settings: antiproliferative activity; cited from earlier work
Jurkat cell line = system: Jurkat cell line; parameters: method as in PMID 20813537; settings: antitumor effect; cited from earlier work
[10] = system: PARP2 (poly(ADP-ribose)polymerase 2); parameters: method as in PMID 37843892; settings: cited from earlier work
[11] = system: PARP1 (poly(ADP-ribose)polymerase 1); parameters: method as in PMID 37843892; settings: cited from earlier work
[12] = system: human lymphocyte cell line (CEM); parameters: method as in PMID 30060562; settings: anticancer activity; cited from earlier work
[13] = system: breast cancer cell line (MCF-7); parameters: method as in doi:10.1016/j.tet.2006.12.076; settings: cancer cell line growth inhibition; cited from earlier work
[14] = system: colorectal adenoma cancer cell line (HT-29); parameters: method as in doi:10.1016/j.tet.2006.12.076; settings: cancer cell line growth inhibition; cited from earlier work
HCT-116 [15] = system: HCT-116; parameters: method as in PMID 37903949; settings: cytotoxic activity; cited from earlier work

O=c1c2ccccc2n(C[C@@H]2C[C@@H](P(=O)(OCc3ccccc3)OCc3ccccc3)N(Cc3ccccc3)O2)c(=O)n1Cc1ccccc1F (relative stereo) [trans-16b, Dibenzyl cis- and trans-5-((3-(2-fluorobenzyl)-3,4-dihydro-2,4-dioxoquinazolin-1(2H)-yl)methyl)-2-benzylisoxazolidin-3-yl-3-phosphonate]
Induction of apoptosis (caspase-3/7 positive cells) (PC-3 cell line): comparable to that induced with staurosporine; also recorded: highest induction of apoptosis; also recorded: strongly induced apoptosis | Cell viability, HSF [1]: no adverse effect was observed | IC50 [2]: 9.84 ± 3.69 µM | IC50 [3]: 78.7 ± 2.35 µM | Cell viability, HepG2 [4]: did not affect cell viability | Cell viability, HEK293 [5]: did not affect cell viability | IC50 [6]: 34.6 ± 5.3 µM

C(=C/CCCCN1OC(CCCCCCCCc2cccnc2)C2CCCC21)/CCCCCCCCCc1cccnc1 (stereo not shown) [pyrinodemin A]
IC50, KB [7]: 0.5 µg/mL (≈ 0.85 µM) | IC50, L1210 [8]: 0.058 µg/mL (≈ 0.0987 µM)

O=C(Cn1c(=O)c2ccccc2n(Cc2ccccc2)c1=O)Nc1ccc(C(=O)N/N=C/c2ccc(Cl)cc2)cc1 [Compound 14]
GI50 (HCT-116 [9]): 5.69 ± 0.4 µM | GI50 (HepG2): 9.16 ± 0.8 µM | GI50 (MCF-7): 5.27 ± 0.2 µM

Cc1cn(C2CC(c3ccccc3Cl)N(C)O2)c(=O)[nH]c1=O (stereo not shown) [Compound 5]
IC50 (Jurkat cell line): 8.8 ± 4.4 µM

O=C(c1cc(Cn2c(=O)[nH]c(=O)c3ccccc32)ccc1F)N1CCN(C2CCCC2)C(=O)C1 [Compound 15]
PARP2 inhibition [10]: inhibited | PARP1 inhibition [11]: inhibited

O=c1[nH]cc(F)c(=O)[nH]1 [5-Fluorouracil]
IC50 [12]: 18 ± 5 µM | GI, MCF-7 [13]: 31% | GI, HT-29 [14]: 34%

O=C(O)c1ccc(NC(=S)NC(=O)c2ccc(-n3c(=O)[nH]c4ccccc4c3=O)cc2)cc1 [Compound 13]
IC50 (HCT-116 [15]): 1.18 ± 0.06 µM
